Assay results taken from PMC7753147, “High-throughput determination of protein affinities using unmodified peptide libraries in nanomolar scale” (iScience, 2020).

Experiments:
[1] = test system: FL-geph; assay: µSPOT peptide microarray binding assay with full-length geph
[2] = test system: gephE; assay: µSPOT peptide microarray binding assay with recombinant gephE
[3] = test system: native geph; assay: µSPOT peptide microarray binding assay with native geph from mouse brain lysate
[4] = µSPOT peptide microarray, GlyRβ full positional scan, intensity normalised to wild-type sequence DLRSNDFSIVGSLPR (=1)
[5] = µSPOT peptide microarray, GlyRβ full positional scan, recombinant gephE, intensity normalised to wild-type sequence DLRSNDFSIVGSLPR (=1)
[6] = µSPOT peptide microarray, GlyRβ full positional scan, native geph from mouse brain lysate, intensity normalised to wild-type sequence DLRSNDFSIVGSLPR (=1)
[7] = µSPOT full positional scan of GlyRβ 15-mer DLRSNDFSIVGSLPR, intensity normalised to wild-type sequence (= 1)
[8] = µSPOT full positional scan of GlyRβ 15-mer DLRSNDFSIVGSLPR, native geph, intensity normalised to wild-type sequence (= 1)
[9] = overlapping GlyR β peptide library on µSPOT array, 50 nM gephE, anti-gephyrin 3B11/HRP chemiluminescence, normalized to most prominent spot, n = 2 array-internal duplicate
[10] = overlapping GlyR β peptide library on µSPOT array, 3% mouse brain lysate, normalized to most prominent spot, n = 2 array-internal duplicate
[11] = overlapping GABAAR α3 peptide library on µSPOT array, 20 nM gephE, normalized to most prominent spot, n = 2 array-internal duplicate
[12] = overlapping GABAAR α3 peptide library on µSPOT array, 6% mouse brain lysate, normalized to most prominent spot, n = 2 array-internal duplicate

Row | Sequence | Fl-geph Binding Intensity [norm.] [1, 4] [norm.] | gephE Binding Intensity [norm.] [2, 5] [norm.] | Native geph Binding Intensity [norm.] [3, 6] [norm.] | also measured
1 | DLRSNDFSAVGSLPR [GlyRβ_Full_Positional_Scan_161, GlyR β 414-428 variant I422A] | 0.81 | 0.56 | 0.52 | –
2 | DLRSNDFSIVGSLAR [GlyRβ_Full_Positional_Scan_261] | – | – | – | Fl-geph Binding Intensity [norm.] [1, 7]: 0.99 norm.; gephE Binding Intensity [norm.] [2, 7]: 0.67 norm.; Native geph Binding Intensity [norm.] [3, 8]: 0.63 norm.
3 | DLRSSDFSIVGSLPR [GlyRβ_Full_Positional_Scan_095] | 0.95 | 0.99 | 0.85 | –
4 | DLLSNDFSIVGSLPR [GlyRβ_Full_Positional_Scan_044] | 1.28 | 0.95 | 1.48 | –
5 | DLRSNDFSIVGSLPQ [GlyRβ_Full_Positional_Scan_300] | – | – | – | Fl-geph Binding Intensity [norm.] [1, 7]: 1.33 norm.; gephE Binding Intensity [norm.] [2, 7]: 1.02 norm.; Native geph Binding Intensity [norm.] [3, 8]: 1.41 norm.
6 | DLRGNDFSIVGSLPR [GlyRβ_Full_Positional_Scan_062] | 0.88 | 0.99 | 1.16 | –
7 | DIRSNDFSIVGSLPR [GlyRβ_Full_Positional_Scan_023] | 1.12 | 0.95 | 1.16 | –
8 | GLRSNDFSIVGSLPR [GlyRβ_Full_Positional_Scan_002] | 1.03 | 1.01 | 0.75 | –
9 | DLRSNDFPIVGSLPR [GlyRβ_Full_Positional_Scan_145, GlyR β 414-428 variant S421P] | 0.66 | 0.48 | 0.25 | –
10 | DLRSMDFSIVGSLPR [GlyRβ_Full_Positional_Scan_098] | 0.85 | 0.92 | 0.91 | –
11 | DLRQNDFSIVGSLPR [GlyRβ_Full_Positional_Scan_080] | 0.98 | 0.89 | 1.04 | –
12 | DLMSNDFSIVGSLPR [GlyRβ_Full_Positional_Scan_058] | 1.3 | 0.77 | 1.59 | –
13 | DLRSNDFSIVGSLPP [GlyRβ_Full_Positional_Scan_285] | – | – | – | Fl-geph Binding Intensity [norm.] [1, 7]: 1.03 norm.; gephE Binding Intensity [norm.] [2, 7]: 1.02 norm.; Native geph Binding Intensity [norm.] [3, 8]: 1.08 norm.
14 | DLRSNDNSIVGSLPR [GlyRβ_Full_Positional_Scan_139, GlyR β 414-428 variant F420N] | 0.63 | 0.52 | 0.4 | –
15 | HLRSNDFSIVGSLPR [GlyRβ_Full_Positional_Scan_013] | 1 | 1.1 | 0.83 | –
16 | DLRSNDFLIVGSLPR [GlyRβ_Full_Positional_Scan_144, GlyR β 414-428 variant S421L] | 0.54 | 0.6 | 0.2 | –
17 | DLRSRDFSIVGSLPR [GlyRβ_Full_Positional_Scan_092] | 0.77 | 0.89 | 0.62 | –
18 | DLRSQDFSIVGSLPR [GlyRβ_Full_Positional_Scan_100] | 1.01 | 0.96 | 0.97 | –
19 | DHRSNDFSIVGSLPR [GlyRβ_Full_Positional_Scan_033] | 0.95 | 0.91 | 0.98 | –
20 | DLRSNDFSICGSLPR [GlyRβ_Full_Positional_Scan_197, GlyR β 414-428 variant V423C] | 0.67 | 0.45 | 0.36 | –
21 | DLRSNDFSIVGSDPR [GlyRβ_Full_Positional_Scan_250] | – | – | – | Fl-geph Binding Intensity [norm.] [1, 7]: 1.05 norm.; gephE Binding Intensity [norm.] [2, 7]: 0.72 norm.; Native geph Binding Intensity [norm.] [3, 8]: 0.61 norm.
22 | DPRSNDFSIVGSLPR [GlyRβ_Full_Positional_Scan_025] | 1.01 | 1.01 | 1.02 | –

Row | Sequence | Fl-geph Binding Intensity [norm.] [1, 4] [norm.] | gephE Binding Intensity [norm.] [2, 5] [norm.] | Native geph Binding Intensity [norm.] [3, 6] [norm.] | also measured
23 | DLRSNDFFIVGSLPR [GlyRβ_Full_Positional_Scan_147, GlyR β 414-428 variant S421F] | 0.64 | 0.53 | 0.18 | –
24 | DLRSNDFSIVGSLPR [GlyRβ_Full_Positional_Scan_099] | 1 | 1 | 1 | –
25 | DLRSNDFKIVGSLPR [GlyRβ_Full_Positional_Scan_154, GlyR β 414-428 variant S421K] | 0.92 | 0.65 | 0.24 | –
26 | DLPSNDFSIVGSLPR [GlyRβ_Full_Positional_Scan_045] | 1.47 | 0.93 | 1.5 | –
27 | DLRSNDFSIVTSLPR [GlyRβ_Full_Positional_Scan_216, GlyR β 414-428 variant G424T] | – | – | – | Fl-geph Binding Intensity [norm.] [1, 7]: 0.47 norm.; gephE Binding Intensity [norm.] [2, 7]: 0.49 norm.; Native geph Binding Intensity [norm.] [3, 8]: 0.28 norm.
28 | DLRSNDFSIVGSLER [GlyRβ_Full_Positional_Scan_271] | – | – | – | Fl-geph Binding Intensity [norm.] [1, 7]: 0.75 norm.; gephE Binding Intensity [norm.] [2, 7]: 0.32 norm.; Native geph Binding Intensity [norm.] [3, 8]: 0.28 norm.
29 | DLASNDFSIVGSLPR [GlyRβ_Full_Positional_Scan_041] | 1.13 | 0.95 | 1.3 | –
30 | GTGTPVHISTLQVGETRCKK [Glycine receptor subunit beta_014, GlyR β residues 388-407] | – | – | – | gephE Binding Intensity [norm.] [2, 9]: 0.044 norm.; Native geph Binding Intensity [norm.] [3, 10]: 0.068 norm.
31 | KSDLRSNDFSIVGSLPRDFE [Glycine receptor subunit beta_022, GlyR β residues 412-431] | – | – | – | gephE Binding Intensity [norm.] [2, 9]: 0.972 norm.; Native geph Binding Intensity [norm.] [3, 10]: 0.945 norm.
32 | TISKSAAAPSASSTPTAIAS [GABAAR α3 residues 414-433, µSpot library] | – | – | – | gephE Binding Intensity [norm.] [2, 11]: 0.024 norm.; Native geph Binding Intensity [norm.] [3, 12]: 0.116 norm.
33 | KKNTTFNIVGTTYPINLAKD [GABAAR α3 residues 390-409, µSpot library] | – | – | – | gephE Binding Intensity [norm.] [2, 11]: 0.443 norm.; Native geph Binding Intensity [norm.] [3, 12]: 0.243 norm.
34 | KATYVQDSPAETKTYNSVSK [GABAAR α3 residues 435-454, µSpot library] | – | – | – | gephE Binding Intensity [norm.] [2, 11]: 0.070 norm.; Native geph Binding Intensity [norm.] [3, 12]: 0.059 norm.
35 | LRSNDFSIVGSLPRDFELSN [Glycine receptor subunit beta_023, GlyR β residues 415-434] | – | – | – | gephE Binding Intensity [norm.] [2, 9]: 1.000 norm.; Native geph Binding Intensity [norm.] [3, 10]: 1.000 norm.
36 | WEGKKVPEALEMKKKTPAAP [GABAAR α3 residues 369-388, µSpot library] | – | – | – | gephE Binding Intensity [norm.] [2, 11]: 0.048 norm.; Native geph Binding Intensity [norm.] [3, 12]: 0.105 norm.
37 | NYFTKRSWAWEGKKVPEALE [GABAAR α3 residues 360-379, µSpot library] | – | – | – | gephE Binding Intensity [norm.] [2, 11]: 0.062 norm.; Native geph Binding Intensity [norm.] [3, 12]: 0.048 norm.
38 | TPAAPTKKNTTFNIVGTTYP [GABAAR α3 residues 384-403, µSpot library] | – | – | – | gephE Binding Intensity [norm.] [2, 11]: 0.948 norm.; Native geph Binding Intensity [norm.] [3, 12]: 1.000 norm.
39 | SWAWEGKKVPEALEMKKKTP | – | – | – | gephE Binding Intensity [norm.] [2, 11]: 0.064 norm.; Native geph Binding Intensity [norm.] [3, 12]: 0.118 norm.
40 | VVQVMLNNPKRVEAEKARIA [Glycine receptor subunit beta_001, GlyR β residues 349-368] | – | – | – | gephE Binding Intensity [norm.] [2, 9]: 0.017 norm.; Native geph Binding Intensity [norm.] [3, 10]: 0.081 norm.
41 | PRDFELSNYDCYGKPIEVNN [Glycine receptor subunit beta_027, GlyR β residues 427-446] | – | – | – | gephE Binding Intensity [norm.] [2, 9]: 0.428 norm.; Native geph Binding Intensity [norm.] [3, 10]: 0.521 norm.
42 | KARIAKAEQADGKGGNAAKK [Glycine receptor subunit beta_006, GlyR β residues 364-383] | – | – | – | gephE Binding Intensity [norm.] [2, 9]: 0.040 norm.; Native geph Binding Intensity [norm.] [3, 10]: 0.091 norm.
43 | PQAKNKKPPPAKPVIPTAAK [Glycine receptor subunit beta_035, GlyR β residues 451-470] | – | – | – | gephE Binding Intensity [norm.] [2, 9]: 0.012 norm.; Native geph Binding Intensity [norm.] [3, 10]: 0.087 norm.
